What was measured:
[1] = target: recombinant human placental 15-PGDH; conditions: cited from earlier work; for potency as inhibitor of 15-PGDH: in words ref 22
[2] = target: T1, ALDH1A1 (Homo sapiens, UniProt P00352); test: Selectivity screen, aldehyde dehydrogenase 1 (PubChem Assay ID 1030); type: biochemical
T1 sequence (P00352 1-501): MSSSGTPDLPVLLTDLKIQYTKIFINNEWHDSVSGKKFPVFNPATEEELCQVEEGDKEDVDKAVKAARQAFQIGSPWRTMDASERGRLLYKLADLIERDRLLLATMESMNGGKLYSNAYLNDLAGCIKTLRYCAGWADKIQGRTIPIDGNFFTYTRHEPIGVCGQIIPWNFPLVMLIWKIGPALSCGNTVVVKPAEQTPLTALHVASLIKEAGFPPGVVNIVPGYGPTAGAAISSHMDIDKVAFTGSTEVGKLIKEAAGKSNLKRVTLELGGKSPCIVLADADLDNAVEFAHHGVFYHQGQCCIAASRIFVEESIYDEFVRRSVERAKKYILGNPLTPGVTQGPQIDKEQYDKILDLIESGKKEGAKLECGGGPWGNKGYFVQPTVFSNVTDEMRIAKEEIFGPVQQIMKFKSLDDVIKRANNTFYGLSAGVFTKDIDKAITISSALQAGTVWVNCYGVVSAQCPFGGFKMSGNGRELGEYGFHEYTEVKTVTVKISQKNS
Protocol: The list also includes two SDR enzymes, hydroxyacyl dehydrogenase (HADH2, also known as type-10 hydroxysteroid dehydrogenase, HSD17β10; PubChem Assay ID 886) and type-4 hydroxysteroid dehydrogenase (HSD17β4; PubChem Assay ID 893), and a medium-chain dehydrogenase/reductase (MDR), aldehyde dehydrogenase 1 (ALDH1A1; PubChem Assay ID 1030), each of which was tested using a similar experimental protocol to that used for 15-PGDH.

[3] = target: T2, human 15-PGDH (Homo sapiens, UniProt P15428); test: Substrate (PGE2) and cofactor (NAD+) titrations, mechanism of action, global fitting; type: biochemical; conditions: for Competitive (CM), fit residual Chi^2 value / Mixed-mode (MM), fit residual Chi^2 value / Noncompetitive (NM), fit residual Chi^2 value / Uncompetitive (UM), fit residual Chi^2 value: global fitting; for Titration of NAD^+ K m / Titration of NAD^+ V max [µmol/(min×mg)] / Titration of NAD^+ k cat/K m[×10^6] / Titration of NAD^+ k cat[1/sec]: 30 µM PGE2
T2 construct: comprising residues 3–256 of the human HPGD gene (GenBank identifier: 1203982); His6 (GHHHHHH, behind the TEV site) (C, cleaved yes); made in house; host or cells: E. coli BL21(DE3)-R3
T2 sequence (P15428 3-256): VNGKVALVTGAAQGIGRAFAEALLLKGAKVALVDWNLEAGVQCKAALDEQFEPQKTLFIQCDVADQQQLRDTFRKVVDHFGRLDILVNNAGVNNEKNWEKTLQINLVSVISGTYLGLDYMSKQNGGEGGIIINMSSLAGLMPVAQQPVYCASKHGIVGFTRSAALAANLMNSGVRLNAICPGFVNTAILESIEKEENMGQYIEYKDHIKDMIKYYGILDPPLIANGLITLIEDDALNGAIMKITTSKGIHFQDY
Protocol: Kinetic studies were performed in 100 mM Tris buffer pH 8.0, containing 0.01% Tween-20 and 10 nM 15-PGDH enzyme. […] All inhibitor compounds were dissolved in 10% (v/v) DMSO at varying concentrations from which they were applied at 1∶5 ratio (resulting in a final concentration of 2% (v/v) DMSO in all assays). For each experiment an aliquot of purified enzyme was thawed freshly and pre-diluted to 10 µM in buffer I (5 mM Tris/HCl, pH 8.0, 150 mM NaCl, 0.01% Tween-20). All experiments were performed in white 384-well PCR microplates (Bio-Rad Laboratories, Inc.) in final assay volumes of 20 µL. Twelve-point compound titrations were set up from serially diluted stock solutions in 10% (v/v) DMSO. […] The initial rates recorded in compound titrations were plotted against -log[compound], and non-linear regression (Levenberg-Marquardt) fitting of the dose-response curve to the Hill equation [47] was performed to derive the IC50, using PRISM 5.0 (GraphPad Software, Inc.). For substrate/cofactor titrations, curves with initial rates plotted against the concentration of substrate or cofactor were fitted to the Michaelis-Menten equation, to derive maximal activities, V max, and Michaelis constants, K m. Fitting qualities were judged from the goodness of fit (R^2>0.98).

[4] = target: T2, human 15-PGDH; test: Differential scanning fluorimetry (DSF), thermal stabilization; type: binding

CCOC(=O)c1ccc(N=Nc2ccc(O)c(CC(=O)O)c2)cc1 [CAY10397]
Ki ([1]; human 15-PGDH ref 24): 0.11 µM

CC1=C(CC(=O)O)c2cc(F)ccc2/C1=C\c1ccc([S+](C)[O-])cc1 (stereo not drawn) [sulindac]
potency as inhibitor of 15-PGDH [1]: micromolar potencies

O=C(O)c1cccnc1Nc1cccc(C(F)(F)F)c1 [niflumic acid]
potency as inhibitor of 15-PGDH [1]: micromolar potencies

CC1(COc2ccc(CC3SC(=O)NC3=O)cc2)CCCCC1 (stereo not drawn) [Ciglitazone]
IC50 ([1]; recombinant human placental 15-PGDH ref 22): 2.7 µM

COc1ccc2c(c1)c(CC(=O)O)c(C)n2C(=O)c1ccc(Cl)cc1 [indomethacin]
potency as inhibitor of 15-PGDH [1]: micromolar potencies

N#Cc1ccccc1CSc1nc2cc(Br)c[nH]c-2n1 [Compound 61]
response against ALDH1A1 ([2]; in words): flat response | IC50 ([2]; top concentration 57.5 µM, PubChem Assay ID 1030, read-out: IC50/nM ALDH1A1): > 57500 nM | Sum-of-squares F-test p, UM vs. MM ([3]; NAD^+ titration): UM vs. MM: p = 0.1058 | Sum-of-squares F-test p, CM vs. MM ([3]; PGE2 titration): CM vs. MM:p = 0.0001 | effect on the V max ([3]; PGE2 titration, in words): almost no effect | increase in the K m ([3]; PGE2 titration, inhibitor 50 nM): 3 fold | Preferred mode of inhibition ([3]; PGE2 titration, rejection threshold p = 0.05): MM (MM, mixed-mode inhibition) | Competitive (CM), fit residual Chi^2 value ([3]; NAD^+ titration): 0.9507 | Mixed-mode (MM), fit residual Chi^2 value ([3]; NAD^+ titration): 0.9841 | Noncompetitive (NM), fit residual Chi^2 value ([3]; NAD^+ titration): 0.9834 | Uncompetitive (UM), fit residual Chi^2 value ([3]; NAD^+ titration): 0.9837 | Competitive (CM), fit residual Chi^2 value ([3]; PGE2 titration): 0.9845 | Mixed-mode (MM), fit residual Chi^2 value ([3]; PGE2 titration): 0.9866 | Noncompetitive (NM), fit residual Chi^2 value ([3]; PGE2 titration): 0.9800 | Uncompetitive (UM), fit residual Chi^2 value ([3]; PGE2 titration): 0.9742 | mode of inhibition with respect to the cofactor NAD+ ([3]; in words): uncompetitive | mode of inhibition with respect to the substrate PGE2 ([3]; in words): competitive inhibition | Titration of PGE2 K m ([3]; inhibitor 10.0 nM): 7.5 ± 0.5 µM | Titration of PGE2 V max[µmol/(min×mg)] ([3]; inhibitor 10.0 nM): 29.0 µmol/min/mg | Titration of PGE2 k cat/K m[×10^6] ([3]; inhibitor 10.0 nM): 1.8 ×10^6 | Titration of NAD^+ K m ([3]; inhibitor 10.0 nM): 17.0 ± 0.8 µM | Titration of NAD^+ V max [µmol/(min×mg)] ([3]; inhibitor 10.0 nM): 21.1 µmol/min/mg | Titration of NAD^+ k cat/K m[×10^6] ([3]; inhibitor 10.0 nM): 0.6 ×10^6 | Titration of NAD^+ k cat[1/sec] ([3]; inhibitor 10.0 nM): 10.3 ± 0.1 s⁻¹ | Titration of PGE2 K m ([3]; inhibitor 50.0 nM): 13.5 ± 1.3 µM | Titration of PGE2 V max[µmol/(min×mg)] ([3]; inhibitor 50.0 nM): 25.6 µmol/min/mg | Titration of PGE2 k cat/K m[×10^6] ([3]; inhibitor 50.0 nM): 0.9 ×10^6 | Titration of PGE2 k cat[1/sec] ([3]; inhibitor 50.0 nM): 12.4 ± 0.3 s⁻¹ | Titration of NAD^+ K m ([3]; inhibitor 50.0 nM): 11.1 ± 1.2 µM | Titration of NAD^+ V max [µmol/(min×mg)] ([3]; inhibitor 50.0 nM): 10.2 µmol/min/mg | Titration of NAD^+ k cat/K m[×10^6] ([3]; inhibitor 50.0 nM): 0.4 ×10^6 | Titration of NAD^+ k cat[1/sec] ([3]; inhibitor 50.0 nM): 5.0 ± 0.1 s⁻¹ | ΔTm in the presence of NAD+ [4]: 12.2±0.1 °C | ΔTm in the presence of NADH [4]: 2.9±0.5 °C | ∆Tm [°C] NAD+ ([4]; with 200 µM NAD+, 1 µM protein, compound 50 or 250 µM, N/A = no unfolding transition observed in DSF): 12.2 °C | ∆Tm [°C] NADH ([4]; with 200 µM NADH, 1 µM protein, compound 50 or 250 µM, N/A = no unfolding transition observed in DSF): 2.9 °C | ∆Tm [°C] apo ([4]; without cofactor, 1 µM protein, compound 50 or 250 µM, N/A = no unfolding transition observed in DSF): -1.2 °C

From publication PMC2970562, “High-Affinity Inhibitors of Human NAD^+-Dependent 15-Hydroxyprostaglandin Dehydrogenase: Mechanisms of Inhibition and Structure-Activity Relationships” (PLoS ONE, 2010)
